One series relates to NF-κB. Briefly: Western blot of NF-κB in rat hippocampal tissue. The conditions noted are these: Aβ induced AD rats, oral, 21 days. It is filed as in vivo, Wistar rats. (In general: Immunoblotting shows a protein as a band on a membrane.)
In another series the test system is TNFα. In words: Western blot of TNFα in rat hippocampal tissue. It is filed as in vivo, Wistar rats. The conditions noted are these: Aβ induced AD rats, oral, 21 days.
Series [1] has as its system Aβ-induced memory impairment in Wistar rats. Briefly: Morris water maze. The conditions noted are these: Aβ induced AD rats, oral, 21 days; 3rd and fourth training days. It is filed as in vivo.
The next series relates to MCF7. In words: Cell viability assay. It is filed as cell-based, human. The conditions noted are these: MTT, 48 h exposure; LD50: concentration that causes 50% of cell viability.
The subject of a further series is B16. In words: Cell viability assay. As to conditions: MTT, 48 h exposure; LD50: concentration that causes 50% of cell viability. The class given is cell-based, murine.
Another series deals with PC12 cells. In words: Cell viability assay. It is filed as cell-based, rat. The conditions noted are these: MTT, 48 h exposure, studied concentrations.

SMILES strings stand for the structures.

As for `COc1cc2c(cc1OC)C(=O)C(CC1CCN(Cc3ccccc3)CC1)C2` (stereo not shown) [Donepezil], in the series with NF-κB, the “NF-κB level in hippocamp tissue (western blot)” value is listed as “Downregulation”. Further, the “TNFα level in hippocamp tissue (western blot)” value in the series on TNFα is “Downregulation”. For the same molecule, the “Escape latency time, MWM” value in series [1] is given as “significantly decreased”.
Turning to `COc1ccc2c3c1O[C@H]1C[C@@H](O)C=C[C@@]31CCN(C)C2` [Galantamine], the “MCF7 (LD50 µM)” value in the series with MCF7 stood at 31.19 µM. Also, the “B16 (LD50 µM)” value in the series with B16 was determined as 34.09 µM. Besides, the “PC12 (LD50 µM)” value in the series on PC12 cells is “No growth inhibition*”; in the series with PC12 cells (listed as galantamine), “no significant effect”.
